Results as given in PubChem BioAssay AID651592 (Sanford-Burnham Center for Chemical Genomics, 2012).

How the values were obtained:
[1] = inhibitors of NFkB activation in CF airway cells, SAR follow-up, KKLEB cells, panel, IL8 HTRF, NFkB-GFP (AID 651592); settings: PAF/TNFa-induced NFkB-GFP / IL8 HTRF, CF-PAF assay;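 note: immortalized cystic fibrosis airway epithelial KKLEB cells with an NF-kB GFP reporter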
IL8 = assay: as above; settings: PAF/TNFa-induced NFkB-GFP / IL8 HTRF, mean of runs, mean IC50 across panel replicates
[2] = molecular target: Interleukin-8 (Homo sapiens) (UniProt P10145); assay: as above; settings: PAF/TNFa-induced NFkB-GFP / IL8 HTRF
[3] = mean of runs, mean IC50 across panel replicates

Chain of Interleukin-8 (Homo sapiens) (P10145 whole entry, looked up): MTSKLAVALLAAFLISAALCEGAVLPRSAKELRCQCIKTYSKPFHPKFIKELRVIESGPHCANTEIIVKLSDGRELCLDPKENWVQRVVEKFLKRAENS

Row | IC50 [1, 3] [µM] | IC50 ([1]; run 1) [µM] | IC50 ([1]; run 2) [µM] | IC50 ([1]; run 3) [µM] | IC50 ([1]; run 4) [µM] | IC50 ([1]; run 5) [µM] | IC50 ([1]; run 6) [µM] | IC50 (IL8; PAF-induced) [µM] | IC50 (IL8; TNFa-induced) [µM] | IC50 ([2]; IL8, PAF-induced, run 1) [µM] | IC50 ([2]; IL8, PAF-induced, run 2) [µM] | IC50 ([2]; IL8, PAF-induced, run 3) [µM] | IC50 ([2]; IL8, PAF-induced, run 4) [µM] | IC50 ([2]; IL8, PAF-induced, run 5) [µM] | IC50 ([2]; IL8, PAF-induced, run 6) [µM] | IC50 ([2]; IL8, TNFa-induced, run 1) [µM] | IC50 ([2]; IL8, TNFa-induced, run 2) [µM] | IC50 ([2]; IL8, TNFa-induced, run 3) [µM] | IC50 ([2]; IL8, TNFa-induced, run 4) [µM] | IC50 ([2]; IL8, TNFa-induced, run 5) [µM] | SMILES | further results
1 | > 66 | > 66 | > 66 | > 66 | > 66 | > 66 | > 66 | > 66 | > 66 | > 66 | > 66 | > 66 | > 66 | > 66 | > 66 | > 66 | > 66 | > 66 | > 66 | > 66 | O=C(Nc1ccc(N2CCN(C(=O)c3ccc(F)cc3)CC2)cc1)c1ccncc1 | IC50 ([2]; IL8, TNFa-induced, run 6): > 66 µM
2 | 25.5 | 12.8 | 20.1 | 22.3 | > 66 | 13 | 19 | 4 | > 66 | 2.61 | 3.3 | 3.37 | 4.49 | 4.57 | 5.68 | > 66 | > 66 | > 66 | > 66 | > 66 | CCOc1ccc(NCc2cc3c(C(C)(C)C)nn(-c4ccccc4)c3[nH]c2=O)cc1 | IC50 ([2]; IL8, TNFa-induced, run 6): > 66 µM
3 | 17.9 | 9.61 | 10.1 | 10.2 | > 66 | 0.52 | 10.8 | 0.228 | > 66 | 0.216 | 0.248 | 0.277 | 0.149 | 0.236 | 0.246 | > 66 | > 66 | > 66 | > 66 | > 66 | CCOc1ccc(NCc2cc3c(C(C)(C)C)nn(-c4ccc(Cl)cc4)c3[nH]c2=O)cc1 | IC50 ([2]; IL8, TNFa-induced, run 6): > 66 µM
4 | 60 | > 66 | > 66 | > 66 | > 66 | > 66 | 30.1 | 14.6 | > 66 | 7.97 | 12.8 | 14.6 | 16.6 | 17 | 18.6 | > 66 | > 66 | > 66 | > 66 | > 66 | Cc1ccc(CNCc2cc3c(C(C)(C)C)nn(-c4ccccc4)c3[nH]c2=O)cc1 | IC50 ([2]; IL8, TNFa-induced, run 6): > 66 µM
5 | 2.74 | 1.98 | 2.48 | 2.61 | 2.72 | 2.99 | 3.67 | 8.85 | 16.1 | 7.62 | 8.41 | 11.1 | 3.16 | 5.73 | 17 | 0.275 | 2.14 | 5.45 | > 66 | 8.3 | O=C(Nc1ccc(N2CCN(C(=O)c3ccccc3Cl)CC2)cc1)c1cncc(Br)c1 | IC50 ([2]; IL8, TNFa-induced, run 6): 14.3 µM
6 | 31.8 | 15.6 | 16.3 | 17.9 | > 66 | > 66 | 8.71 | 55.8 | > 66 | > 66 | > 66 | 55.8 | > 66 | > 66 | > 66 | > 66 | > 66 | > 66 | > 66 | > 66 | O=C(Nc1ccc(N2CCN(C(=O)c3ccccc3F)CC2)cc1)c1ccncc1 | IC50 ([2]; IL8, TNFa-induced, run 6): > 66 µM
7 | > 66 | > 66 | > 66 | > 66 | > 66 | > 66 | > 66 | > 66 | > 66 | > 66 | > 66 | > 66 | > 66 | > 66 | > 66 | > 66 | > 66 | > 66 | > 66 | > 66 | O=C(Nc1ccc(N2CCN(C(=O)c3ccc(F)cc3)CC2)cc1)c1ccccc1 | IC50 ([2]; IL8, TNFa-induced, run 6): > 66 µM
8 | 25.2 | 18.7 | 44.7 | 48 | 10.4 | 12.9 | 16.3 | 1.62 | > 66 | 1.25 | 1.71 | 1.85 | 1.33 | 1.66 | 1.89 | > 66 | > 66 | > 66 | > 66 | > 66 | CCOc1ccc(NCc2cc3c(-c4ccc(OC)c(OC)c4)nn(-c4ccccc4)c3[nH]c2=O)cc1 | IC50 ([2]; IL8, TNFa-induced, run 6): > 66 µM
9 | 41.4 | 38.3 | 39.4 | 46.4 | > 66 | > 66 | > 66 | > 66 | > 66 | > 66 | > 66 | > 66 | > 66 | > 66 | > 66 | > 66 | > 66 | > 66 | > 66 | > 66 | O=C(Nc1ccc(N2CCN(C(=O)c3ccc(F)cc3)CC2)cc1)c1cccnc1 | IC50 ([2]; IL8, TNFa-induced, run 6): > 66 µM
10 | > 66 | > 66 | > 66 | > 66 | > 66 | > 66 | > 66 | > 66 | > 66 | > 66 | > 66 | > 66 | > 66 | > 66 | > 66 | > 66 | > 66 | > 66 | > 66 | > 66 | O=C(Nc1ccc(N2CCN(C(=O)c3ccccc3F)CC2)cc1)c1cc(Br)cc(Br)c1 | IC50 ([2]; IL8, TNFa-induced, run 6): > 66 µM
